{"source": "patent US20150202157A1", "about": "“COMPOSITIONS AND METHODS FOR ENHANCING NEURONAL PHOSPHORYLATION HOMEOSTASIS, AND MODULATING DYSFUNCTIONAL EXOCYTOSIS AND NEUROTRANSMITTER RELEASE” (Revalesio Corporation, priority 2014, published 2015)", "system": "squid giant synapse", "test": "Electron microscopy of presynaptic terminal (synaptic vesicles at active zones)", "type": "cell-based, squid (Loligo paelli)", "settings": "treated squid following h-tau42 injection", "text": "Immediately following the electrophysiological study the ganglia were removed from the recording chamber, fixed by immersion in glutaraldehyde, postfixed in osmium tetroxide, stained in block with uranium acetate, dehydrated and embedded in resin (Embed 812, EM Sciences). Ultrathin sections were collected on Pioloform (Ted Pella, Redding, Calif.) and carbon-coated single sloth grids, and contrasted with uranyl acetate and lead citrate. Morphometry and quantitative analysis of the synaptic vesicles were performed with the in house program developed with LabVIEW (National Instruments, Ostin Tex.). […] Vesicle density at the synaptic active zones was determined as the number of vesicles per μm^2, on an average area of 0.8 μm^2 per active zone. CCV density was determined within the limits of the presynaptic terminal on an average terminal area of 3.3 μm^2.\nAt the end of the electrophysiological recordings the stellate ganglion was immediately removed from the recording chamber and fixed by immersion in glutaraldehyde. […] Morphometry and quantitative analysis of the synaptic vesicles were performed with the image J software (NIH, EUA). […] Synaptic vesicle density and the number of CCV at the synaptic active zones were determined as the number of vesicles per μm2. […]"}
{"compound": "O=C(O)/C=C\\C(=O)O.OC1CN(CCCOCCc2ccc3sccc3c2)C1", "note": "[T817MA]", "values": [{"measurement": "reduction in number of docked vesicles following h-tau42 injection", "value": "not seen"}]}
